Measurements published in US8202904B2, “α-cyano-4-fluoro-3-phenoxybenzyl meta-halo pyrethrate, a process for preparing the same and the uses thereof” (East China Normal University, priority 2007, dated 2012).
In brackets after ≈: the same amount, converted by molar mass. Read-outs that look alike come from different tables or passages of the source.

What was measured:
[1] = tested on: Culex pipiens pallens fourth instar wiggler; experiment: Killing effect on wiggler, WHO immersing method, LC50; assay type: in vivo; details: for LC50: Culex pipiens pallens fourth instar wiggler, immersing method, mortality after 24 hours, 26±1° C.; for Relative toxicity: from wiggler LC50, Cypermethrin = 100
Method: The following pyrethrates were tested as representatives according to the method recommended by the World Health Organization (WHO) (Zongbing ZHANG, the assay of toxicity of insecticides, the Science Press, 1988), the commonly used testing breed, Culex pipiens pallens fourth instar wiggler is used as a subject for biological assay, test temperature: 26±1° C., humidity: 70±10%; immersing method: a solution of a certain amount the compound to be tested in acetone was mixed evenly with pure water in the gradually decreasing concentration of 500, 250, 100, 50, 25, 12.5, 6.25, 3.125, 1, 0.5, 0.25, 0.1, 0.05, 0.025, 0.01, 0.005, 0.0025, 0.0001 mg/L, and the mortality of wiggler after 24 hours was calculated and LC50 was calculated to preliminarily evaluate the insecticidal activity. The results were shown in Table I. Compound 1-5 are representative examples of the compound of formula (I) of the present invention: the compounds involved in preparation Example 1-5 were prepared;
At the same time, their relative toxicities were compared with those of Cypermethrin, and Deltamethrin.

[2] = tested on: Tetrangychus cinnabarinus; experiment: Killing effect on Tetrangychus cinnabarinus, immersion; assay type: in vivo; details: after 24 hours
Method: The killing effect on acarids was tested using Compound 2 and 3, which are representative examples of the compound of formula (I) of the present invention, Compound 9 as a control example. Tetrangychus cinnabarinus, test temperature: 26±1° C. humidity: 70±10%; test method: immersion; adult insects together with horsebean leaves were immersed in a liquor in dimethyl sulfoxide for 5 seconds, after which the leaves were inserted into a small bottle. Each treatment was done in triplicate. The number of the killed insects was checked after 24 hours to calculate the mortality.

Aphis medicaginis kock = experiment: Killing effect on aphids, immersion; assay type: in vivo; details: aphids, after 24 hours
Method: The killing effect on aphids was tested using Compound 2 and 3, which are representative examples of the compound of formula (I) of the present invention, Compound 9 as a control example. Aphis medicaginis kock; test temperature: 26±1° C., humidity: 70±10%; test method: immersion; adult insects together with bean sprouts were immersed in a liquor in dimethyl sulfoxide for 5 seconds, after which the bean sprouts were heeled in a solid support. Each treatment was done in triplicate. The number of the killed insects was checked after 24 hours to calculate the mortality.

Musca domestica = experiment: Striking down effect on Musca domestica, liquid film contact method; assay type: in vivo; design: unit not given here; details: Musca domestica adults, film from 1 ml of 0.1% liquor in acetone in 500 ml conical flask
Method: The striking down effect on Musca domestica was tested using Compounds 2 and 3, which are representative examples of the compound of formula (I) of the present invention, Compound 9 as a control example. Musca domestica, an in-house cultured sensitive strain, the adult insects in eclosion for 3-5 days were used, and the male and female insects are half and half. Test temperature: 26±1° C., humidity: 70±10%, test method: liquid film contact method. 1 ml of 0.1% liquor in acetone was evenly coated on a 500 ml conical flask to form a film. After the film was dry, 20˜25 adult insects were put into the flask, and the striking down time and striking down number were observed, and each treatment was done in triplicate.

Mythimna separata = experiment: Killing effect on Mythimna separata, dipped corn leaves fed to larvae; assay type: in vivo; details: after 48 hours
Method: The killing effect on Mythimna separata was tested using Compounds 2 and 3, which are representative examples of the compound of formula (I) of the present invention, Compound 9, polyfluorobenzyl meta-halo pyrethrate, which has the highest insecticidal activity to Mythimna separata as a control example.
Mythimna separata: test temperature: 26±1° C., humidity: 70±10%; the corn leaves was immersed, and then were taken out after they were dipped in a liquor in dimethyl sulfoxide for 5 seconds. The liquor was dried in the shade and the corn leaves were cut away to feed larvae at the beginning of the third instar. Each treatment was done in triplicate. The number of killed insects was counted after 48 hours to calculate the mortality.

Blattela germanica = experiment: Striking down effect on cockroaches, liquid film contact method; assay type: in vivo; design: unit not given here; details: Blattela germanica male adults, film at 54 mg/m^2, 22±1° C.
Method: The striking down effect on Blattela germanica was tested using Compound 2 and 3, which are representative examples of the compound of formula (I) of the present invention, Compound 9 as a control example. Blattela germanica, an in-house cultured sensitive strain, male adult insects were used. Test temperature: 22±1° C., test method: liquid film contact method. A liquor in acetone was evenly coated at the amount of 54 mg/m^2 on the inner wall of a wild mouth bottle to form a film. After the film was dry, 10 adult insects were put into each bottle, and the striking down time and striking down number were observed, and each treatment was done in triplicate.

[3] = Stability test, ultraviolet lamp irradiation, gas chromatography analysis; assay type: physicochemical; details: 0.15 mmol in 50 ml cyclohexane, 500 W ultraviolet lamp, 30 min
Method: 0.15 mmol of the compound of Preparation Example 2 (cis-α-cyano-3-phenoxy-4-fluoro-benzyl-2,2-dimethyl-3-(2-chlorovinyl)cyclopropane carboxylate) and 0.15 mmol of the corresponding dichloride compound (cis-α-cyano-3-phenoxy-4-fluoro-benzyl-2,2-dimethyl-3-(2,2-dichlorovinyl)cyclopropane carboxylate) were added to two vessels separately, to which 50 ml of cyclohexane were added separately. They were irradiated by a 500 W ultraviolet lamp for 30 min respectively. Then to each of the vessels were added 0.15 mmol of n-hexane as an internal standard for gas chromatography analysis. […] The photodegradation rate of the former is 1.9 times of that of the latter. That is to say, if the same amounts were used, the residue of the former in the environment is lower than that of the latter.

`CC1(C)C(C=CCl)C1C(=O)OC(C#N)c1ccc(F)c(Oc2ccccc2)c1` (mixture of isomers) [Compound 1, cis/trans-α-cyano-3-phenoxy-4-fluoro-benzyl-2,2-dimethyl-3-(E/Z-2-chlorovinyl)cyclopropane carboxylate] gave an LC50 [1] of 0.00055 µg/mL and a Relative toxicity [1] of 1927.

In the case of `CC1(C)[C@@H](C=CCl)[C@@H]1C(=O)OC(C#N)c1ccc(F)c(Oc2ccccc2)c1` (relative stereo) [Compound 3, Trans-α-cyano-3-phenoxy-4-fluoro-benzyl-2,2-dimethyl-3-(2-chlorovinyl)cyclopropane carboxylate], the The average mortality ([2]; 1 mg/L) is reported as 0%, the The average mortality ([2]; 5 mg/L) is reported as 0% and the The average mortality ([2]; 50 mg/L) is reported as 7.8%. It also gave a The average mortality ([2]; 500 mg/L) of 100%, a mortality at 0.5 ppm (Aphis medicaginis kock; Aphis medicaginis, 0.5 ppm, read-out: The average mortality) of 0% and a mortality at 1 ppm (Aphis medicaginis kock; Aphis medicaginis, 1 ppm, read-out: The average mortality) of 66.3%. It also gave a mortality at 5 ppm (Aphis medicaginis kock; Aphis medicaginis, 5 ppm, read-out: The average mortality) of 83.7%, a mortality at 50 ppm (Aphis medicaginis kock; Aphis medicaginis, 50 ppm, read-out: The average mortality) of 100% and a mortality at 500 ppm (Aphis medicaginis kock; Aphis medicaginis, 500 ppm, read-out: The average mortality) of 100%. The KT50 (Musca domestica) was 5.80, the mortality at 0.5 ppm (Mythimna separata; 0.5 ppm, read-out: The average mortality) was 0% and the mortality at 1 ppm (Mythimna separata; 1 ppm, read-out: The average mortality) was 0%. The mortality at 5 ppm (Mythimna separata; 5 ppm, read-out: The average mortality) was 100%, the mortality at 50 ppm (Mythimna separata; 50 ppm, read-out: The average mortality) was 100% and the mortality at 500 ppm (Mythimna separata; 500 ppm, read-out: The average mortality) was 100%. For the same molecule, the LC50 ([1]; read-out: LC50) was 0.0055 µg/mL (≈ 0.0138 µM), the Relative toxicity [1] was 193 and the KT50 (Blattela germanica) was 8.14.

`CC1(C)[C@H](/C=C/F)[C@@H]1C(=O)OC(C#N)c1ccc(F)c(Oc2ccccc2)c1` (relative stereo) [Compound 5, cis-α-cyano-3-phenoxy-4-fluoro-benzyl-2,2-dimethyl-3-(E-2-fluorovinyl)cyclopropane carboxylate] gave an LC50 ([1]; read-out: LC50) of 0.00061 µg/mL (≈ 0.00159 µM) and a Relative toxicity [1] of 1740.

`CC1(C)[C@H](/C=C/Cl)[C@@H]1C(=O)OCc1c(F)c(F)cc(F)c1F` (relative stereo) [Compound 6, cis-2,3,5,6-tetrafluoro-4-benzyl-3-(E-2-chlorovinyl)-2,2-dimethylcyclopropane carboxylate] gave an LC50 [1] of 0.4810 µg/mL (≈ 1.43 µM) and a Relative toxicity [1] of 2.

`Cc1c(F)c(F)c(COC(=O)[C@H]2[C@@H](/C=C/Cl)C2(C)C)c(F)c1F` (relative stereo) [Compound 7, cis-2,3,5,6-tetrafluoro-4-methyl benzyl-3-(E-2-chlorovinyl)-2,2-dimethylcyclopropane carboxylate] gave an LC50 [1] of 0.0741 µg/mL (≈ 0.211 µM) and a Relative toxicity [1] of 14.

Molecule `CC1(C)[C@H](/C=C/Cl)[C@@H]1C(=O)OCc1c(F)c(F)c(F)c(F)c1F` (relative stereo) [Compound 8, cis-pentafluorobenzyl-3-(E-2-chlorovinyl)-2,2-dimethyl cyclopropane carboxylate] has an LC50 [1] of 0.0801 µg/mL (≈ 0.226 µM) and a Relative toxicity [1] of 13.

In the case of `CC1(C)[C@@H](C=CCl)[C@@H]1C(=O)OCc1c(F)c(F)cc(F)c1F` (relative stereo) [Compound 9, trans-2,3,5,6-tetrafluoro-4-benzyl-3-(2-chlorovinyl)-2,2-dimethylcyclopropane carboxylat, reference compound], the The average mortality ([2]; 1 mg/L) is reported as 0%, the The average mortality ([2]; 5 mg/L) is reported as 0% and the The average mortality ([2]; 50 mg/L) is reported as 0%. The The average mortality ([2]; 500 mg/L) was 0%, the The average mortality (Aphis medicaginis kock; 0.5 ppm) was 0% and the The average mortality (Aphis medicaginis kock; 1 ppm) was 0%. The The average mortality (Aphis medicaginis kock; 5 ppm) was 0%, the The average mortality (Aphis medicaginis kock; 50 ppm) was 18.8% and the The average mortality (Aphis medicaginis kock; 500 ppm) was 100%. For the same molecule, the KT50 (Musca domestica) was 9.51, the The average mortality (Mythimna separata; 0.5 ppm) was 0% and the The average mortality (Mythimna separata; 1 ppm) was 0%. The The average mortality (Mythimna separata; 5 ppm) was 0%, the The average mortality (Mythimna separata; 50 ppm) was 100% and the The average mortality (Mythimna separata; 500 ppm) was 100%. It also gave an LC50 [1] of 0.2492 µg/mL (≈ 0.74 µM), a Relative toxicity [1] of 4 and a KT50 (Blattela germanica) of 12.0.

With `Cc1c(F)c(F)c(COC(=O)[C@H]2[C@H](C=CCl)C2(C)C)c(F)c1F` (relative stereo) [Compound 10, trans-2,3,5,6-tetrafluoro-4-methylbenzyl-3-(2-chlorovinyl)-2,2-dimethylcyclopropane carboxylate] the LC50 ([1]; read-out: LC50) was 0.0578 µg/mL (≈ 0.165 µM) and the Relative toxicity [1] was 18.

`CC1(C)[C@@H](C=CCl)[C@@H]1C(=O)OCc1c(F)c(F)c(F)c(F)c1F` (relative stereo) [Compound 11, trans-pentafluorobenzyl-3-(2-chlorovinyl)-2,2-dimethyl cyclopropane carboxylate] gave an LC50 [1] of 0.2041 µg/mL (≈ 0.575 µM) and a Relative toxicity [1] of 5.

In the case of `CC1(C)[C@H](C=CBr)[C@@H]1C(=O)OC(C#N)c1cccc(Oc2ccccc2)c1` (relative stereo) [Compound 12, cis-α-cyano-3-phenoxybenzyl-2,2-dimethyl-3-(2-bromovinyl)cyclopropane carboxylate], the LC50 ([1]; read-out: LC50) is reported as 0.0108 µg/mL (≈ 0.0253 µM) and the Relative toxicity [1] is reported as 98.

In the case of `CC1(C)[C@@H](C=CCl)[C@@H]1C(=O)OC(C#N)c1cccc(Oc2ccccc2)c1` (relative stereo) [Compound 13, trans-α-cyano-3-phenoxybenzyl-2,2-dimethyl-3-(2-chlorovinyl)cyclopropane carboxylate], the LC50 ([1]; read-out: LC50) is reported as 0.0527 µg/mL (≈ 0.138 µM) and the Relative toxicity [1] is reported as 20.

`CC1(C)[C@H](C=C(Cl)Cl)[C@@H]1C(=O)OC(C#N)c1ccc(F)c(Oc2ccccc2)c1` (relative stereo) [corresponding dichloride compound, cis-α-cyano-3-phenoxy-4-fluoro-benzyl-2,2-dimethyl-3-(2,2-dichlorovinyl)cyclopropane carboxylate, reference compound] gave a degraded by light [3] of 14%.

`CC1(C)[C@H](C=CBr)[C@H]1C(=O)OC(C#N)c1ccc(F)c(Oc2ccccc2)c1` (stereo partly drawn) [Compound 4, (1R)-Trans-α-cyano-3-phenoxy-4-fluoro-benzyl-2,2-dimethyl-3-(2-bromovinyl)cyclopropane carboxylate] showed an LC50 ([1]; read-out: LC50) of 0.0027 µg/mL (≈ 0.00608 µM) and a Relative toxicity [1] of 393.

Work on `CC1(C)C(C=C(Cl)Cl)C1C(=O)OC(C#N)c1cccc(Oc2ccccc2)c1` (stereo not shown) [Cypermethrin] yielded an LC50 ([1]; read-out: LC50) of 0.0106 µg/mL (≈ 0.0255 µM) and a Relative toxicity [1] of 100.

`CC1(C)[C@H](C(=O)O[C@H](C#N)c2cccc(Oc3ccccc3)c2)[C@@H]1C=C(Br)Br` [Deltamethrin] gave an LC50 ([1]; read-out: LC50) of 0.0012 µg/mL (≈ 0.00238 µM) and a Relative toxicity [1] of 883.
